Results as given in patent publication US12030877B2, “Prostaglandin E synthase inhibitors and methods for utilizing the same” (University of Kentucky Research Foundation, priority 2016, dated 2024).
Where two headings read alike, the source gives them in different places.

What was measured:
mPGES-1 [1] = molecular target: T1, mPGES-1 (Homo sapiens, UniProt O14684); conditions: background, cited from earlier work
T1 sequence (O14684 1-152): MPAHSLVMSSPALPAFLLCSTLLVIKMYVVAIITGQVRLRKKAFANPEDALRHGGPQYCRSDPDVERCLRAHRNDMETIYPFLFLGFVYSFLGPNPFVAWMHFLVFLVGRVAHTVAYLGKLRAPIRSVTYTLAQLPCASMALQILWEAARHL

mPGES-1 Mouse enzyme = molecular target: T2, mPGES-1 Mouse enzyme (Mus musculus, UniProt Q9JM51); test: mPGES-1 enzyme activity assay (PGE2 enzyme immunoassay), mouse enzyme; format: biochemical; conditions: compound at a concentration of 10 μM; read-out: % inhibition of the compound against mPGES-1, Mouse enzyme
T2 construct: made in house; host or cells: FreeStyle 293-F cells, crude microsomal preparation
T2 sequence (Q9JM51 1-153): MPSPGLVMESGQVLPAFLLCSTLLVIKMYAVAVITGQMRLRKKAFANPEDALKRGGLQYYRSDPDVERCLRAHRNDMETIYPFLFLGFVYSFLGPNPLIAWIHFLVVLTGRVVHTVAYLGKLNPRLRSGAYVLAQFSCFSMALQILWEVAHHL
Method in brief: (§1)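 Crude microsomal enzyme from transfected FreeStyle 293-F cells, preincubated 15 min at room temperature with compound in phosphate pH 7.2 with GSH. Reaction started with 1 μM PGH2, stopped after 30 s with SnCl2; non-enzymatic background without enzyme. PGE2 by enzyme immunoassay; IC50 computed.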

mPGES-1 [2] = molecular target: T1, mPGES-1; test: mPGES-1 enzyme activity assay (PGE2 enzyme immunoassay), human enzyme; format: biochemical; design: made in house; host or cells: FreeStyle 293-F cells, crude microsomal preparation; conditions: recombinant microsomal enzyme; means ± SD, triplicate; read-out: IC50 against mPGES-1, Human enzyme
Method in brief: as §1

CSc1ccc(/C=C2/C(C)=C(CC(=O)O)c3cc(F)ccc32)cc1
IC50 (mPGES-1 [1]; literature refs 20-22, read-out: IC50 for inhibition of mPGES-1): 80 µM

CCCCC/C=C\C\C=C/C=C/C=C/[C@@H](SC[C@H](NC(=O)CC[C@H](N)C(=O)O)C(=O)NCC(=O)O)[C@@H](O)CCCC(=O)O [Leukotriene C4]
IC50 for inhibition of mPGES-1 (in words) (mPGES-1 [1]; literature ref 20, probably competing with glutathione): micromolar

CCCCCCCCOc1ccc(-c2nn(-c3ccc(Cl)cc3)cc2/C=C(/C#N)C(=O)O)cc1 [VII-17]
inhibition at 10 µM (mPGES-1 Mouse enzyme): 29%
IC50 (mPGES-1 [2]): 0.09 ± 0.015 µM

CCCCCCCCCCOc1ccc(-c2nn(-c3ccccc3)cc2/C=C(/C#N)C(=O)O)cc1 [VII-18]
inhibition at 10 µM (mPGES-1 Mouse enzyme): 4.3%
IC50 (mPGES-1 [2]): 0.197 ± 0.032 µM

CCCCCCCCCCOc1ccc(-c2nn(-c3ccc(Cl)cc3)cc2/C=C(/C#N)C(=O)O)cc1 [VII-19]
inhibition at 10 µM (mPGES-1 Mouse enzyme): 4.6%
IC50 (mPGES-1 [2]): 0.097 ± 0.015 µM

N#C/C(=C/c1cn(-c2ccccc2)nc1-c1ccc(OCc2ccccc2)cc1)C(=O)O [VII-20]
inhibition at 10 µM (mPGES-1 Mouse enzyme): 16%
IC50 (mPGES-1 [2]): 0.806 ± 0.162 µM
